Assay results: publication PMC9011347, “Small-Molecule Inhibitors Targeting Lipolysis in Human Adipocytes” (Journal of the American Chemical Society, 2022)

Assays:
Assay in all cases: TAG hydrolase assay, humanized mouse ATGL variants
Format in all cases: biochemical
[1] = biological target: T1, mouse ATGL I69F/T93I/C97F/T146G quadruple mutant (Mus musculus, UniProt Q8BJ56, C97F/I69F/T146G/T93I); settings: I69F/T93I/C97F/T146G quadruple mutant of mouse ATGL
T1 construct: host or cells: Expi293 cells, cell lysate
T1 sequence (Q8BJ56 whole entry I69F/T93I/C97F/T146G): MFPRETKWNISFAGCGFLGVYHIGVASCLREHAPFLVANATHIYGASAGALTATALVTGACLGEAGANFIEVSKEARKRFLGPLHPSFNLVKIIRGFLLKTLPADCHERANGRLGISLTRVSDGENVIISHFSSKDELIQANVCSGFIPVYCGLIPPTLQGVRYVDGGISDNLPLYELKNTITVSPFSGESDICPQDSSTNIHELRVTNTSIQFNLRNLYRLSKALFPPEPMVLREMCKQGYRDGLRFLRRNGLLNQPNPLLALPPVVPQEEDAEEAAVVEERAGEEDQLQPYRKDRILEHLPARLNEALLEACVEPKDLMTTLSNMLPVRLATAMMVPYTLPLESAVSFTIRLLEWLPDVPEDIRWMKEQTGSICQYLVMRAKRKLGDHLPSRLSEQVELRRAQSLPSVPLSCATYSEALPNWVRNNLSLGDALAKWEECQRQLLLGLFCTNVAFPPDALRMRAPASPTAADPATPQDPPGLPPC
Source text: (§1) According to our 3D model, aa T93 and C97 are located in close spatial proximity to I69. […] According to our 3D models, the overall topologies of the minimal active domains of mouse and human ATGL are identical, with S47 and D166 as active site residues in close spatial proximity (depicted as green sticks, Figure 6d,f). Residues S10–L178 (depicted in blue for mouse and pink for human) build a relatively compact half of the protein, while residues K179–L254 (depicted in gray) are less compact. The minimal active domain of both mouse and human ATGL is predicted to have a large, two-pronged fork cavity. The “left,” shallow prong is formed mainly by residues S10–L17 and S170–L254. The “right,” deeper prong is formed by five different helices (depicted in light blue and pink for mouse and human ATGL, respectively). The first helix is assembled by the N-terminal residues G16-E31. […] form three other helices and residues L137–F147 assemble a short helix with an adjacent unstructured stretch. In the orientation shown in Figure 6d,f, the active site is located in the middle part of the cavity connecting both prongs to the exterior. I69, C97, T146, and their human counterparts F69, F97, and G146, are all located in the right prong of the cavity. T(G)146 is located near the active site, while I(F)69 and C(F)97 are located on the opposite side of the cavity in close spatial proximity (Figure 6e,g). Our 3D homology models indicate that these residues change the widths and depths of the right prong, which can explain their crucial contribution to inhibitor selectivity and efficacy.
(§2) Figure 6 Identification of the molecular scaffold determining species selectivity. (a) Schematic view of mouse ATGL variants, which are sensitive to NG-497 inhibition. Humanized aa are indicated in red and nonidentical aa are indicated in dark blue. (b) Dose-dependent inhibition of the I69F/T146G double mutant, the I69F/T93I/C97F/T146G quadruple mutant, and human ATGL. (c) Dose-dependent inhibition of triple mutants I69F/T93I/T146G and I69F/C97F/T146G, and human ATGL. IC50 values are shown in the insets. […]

[2] = biological target: T2, mouse ATGL triple mutant I69F/C97F/T146G (Mus musculus, UniProt Q8BJ56, C97F/I69F/T146G); settings: I69F/C97F/T146G triple mutant of mouse ATGL
T2 construct: host or cells: Expi293 cells, cell lysate
T2 sequence (Q8BJ56 whole entry I69F/C97F/T146G): as the sequence (Q8BJ56 whole entry I69F/T93I/C97F/T146G) above, with I93T counted along it
Source text: as §1, §2

[3] = biological target: T3, mouse ATGL triple mutant I69F/T93I/T146G (Mus musculus, UniProt Q8BJ56, I69F/T146G/T93I); settings: I69F/T93I/T146G triple mutant of mouse ATGL
T3 construct: host or cells: Expi293 cells, cell lysate
T3 sequence (Q8BJ56 whole entry I69F/T93I/T146G): as the sequence (Q8BJ56 whole entry I69F/T93I/C97F/T146G) above, with F97C counted along it
Source text: as §1, §2

Structure (SMILES): CCOc1ccc(-c2cc(OC)cc(C(=O)OC(C)C)n2)cc1 [NG-497]
- IC50 [1]: 1.6 ± 0.1 µM
- IC50 [2]: 1 µM
- IC50 [3]: 9.3 µM
